From ChEMBL document CHEMBL1909046, “DrugMatrix in vitro pharmacology data”

What was measured:
[1] = molecular target: T1, Vasoactive intestinal polypeptide receptor 1 (Homo sapiens, UniProt P32241); format: cell membranes, Membrane; details: ht-29; note: in other assays of this panel Not Active means under 50% inhibition at 10 µM
T1 sequence (P32241 whole entry): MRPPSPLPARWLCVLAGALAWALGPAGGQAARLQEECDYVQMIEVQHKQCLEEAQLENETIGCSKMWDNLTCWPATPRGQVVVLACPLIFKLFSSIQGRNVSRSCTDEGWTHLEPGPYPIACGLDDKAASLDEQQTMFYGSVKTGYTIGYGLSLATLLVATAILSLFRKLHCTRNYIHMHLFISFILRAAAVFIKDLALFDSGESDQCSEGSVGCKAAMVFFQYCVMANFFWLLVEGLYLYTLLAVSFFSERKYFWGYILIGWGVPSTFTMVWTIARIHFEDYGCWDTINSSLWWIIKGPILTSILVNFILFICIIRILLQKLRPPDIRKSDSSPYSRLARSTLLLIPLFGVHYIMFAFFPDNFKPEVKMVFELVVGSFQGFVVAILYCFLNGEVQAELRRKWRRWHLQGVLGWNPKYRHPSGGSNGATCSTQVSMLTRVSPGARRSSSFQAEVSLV

[2] = DRUGMATRIX: GABAA, Flunitrazepam, Central radioligand binding (ligand: [3H] Flunitrazepam); format: cell membranes, Rattus norvegicus, Wistar, Brain, Membrane; details: Not Active = under 50% inhibition at 10 µM
[3] = molecular target: T2, D(4) dopamine receptor (Homo sapiens, UniProt P21917); experiment: DRUGMATRIX: Dopamine D4.2 radioligand binding (ligand: [3H] Spiperone); format: cell membranes, CHO-K1, Membrane; details: cho-k1; Not Active = under 50% inhibition at 10 µM
T2 sequence (P21917 whole entry): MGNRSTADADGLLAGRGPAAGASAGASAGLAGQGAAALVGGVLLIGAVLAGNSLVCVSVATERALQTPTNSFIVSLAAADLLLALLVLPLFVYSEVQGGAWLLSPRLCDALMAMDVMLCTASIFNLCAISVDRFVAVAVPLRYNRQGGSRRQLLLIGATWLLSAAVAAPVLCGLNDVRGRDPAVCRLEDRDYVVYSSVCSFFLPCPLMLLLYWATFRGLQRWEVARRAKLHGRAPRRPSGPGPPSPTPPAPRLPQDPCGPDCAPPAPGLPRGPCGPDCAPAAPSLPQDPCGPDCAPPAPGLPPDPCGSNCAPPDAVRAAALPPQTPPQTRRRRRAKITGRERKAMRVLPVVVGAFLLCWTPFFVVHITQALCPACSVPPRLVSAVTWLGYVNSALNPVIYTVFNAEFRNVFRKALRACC

[4] = molecular target: 5-hydroxytryptamine receptor 4 (Cavia porcellus, UniProt O70528); format: cell membranes, Dunkin-Hartley, Striatum, Membrane; note: in other assays of this panel Not Active means under 50% inhibition at 10 µM
5-hydroxytryptamine receptor 4, sequence (O70528 whole entry): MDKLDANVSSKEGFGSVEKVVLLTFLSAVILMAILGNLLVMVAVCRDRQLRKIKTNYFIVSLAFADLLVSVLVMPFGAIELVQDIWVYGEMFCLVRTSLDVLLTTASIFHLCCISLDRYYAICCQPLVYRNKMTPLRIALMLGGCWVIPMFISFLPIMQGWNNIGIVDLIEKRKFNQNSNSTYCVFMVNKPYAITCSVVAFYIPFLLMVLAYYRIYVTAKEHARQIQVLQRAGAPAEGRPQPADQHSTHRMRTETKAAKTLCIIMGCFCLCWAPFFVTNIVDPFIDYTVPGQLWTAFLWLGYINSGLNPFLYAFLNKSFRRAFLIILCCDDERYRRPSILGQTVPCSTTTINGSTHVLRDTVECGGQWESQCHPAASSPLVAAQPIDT

[5] = molecular target: T3, B2 bradykinin receptor (Homo sapiens, UniProt P30411); format: cell membranes, Membrane; details: chem-1; note: in other assays of this panel Not Active means under 50% inhibition at 10 µM
T3 sequence (P30411 whole entry): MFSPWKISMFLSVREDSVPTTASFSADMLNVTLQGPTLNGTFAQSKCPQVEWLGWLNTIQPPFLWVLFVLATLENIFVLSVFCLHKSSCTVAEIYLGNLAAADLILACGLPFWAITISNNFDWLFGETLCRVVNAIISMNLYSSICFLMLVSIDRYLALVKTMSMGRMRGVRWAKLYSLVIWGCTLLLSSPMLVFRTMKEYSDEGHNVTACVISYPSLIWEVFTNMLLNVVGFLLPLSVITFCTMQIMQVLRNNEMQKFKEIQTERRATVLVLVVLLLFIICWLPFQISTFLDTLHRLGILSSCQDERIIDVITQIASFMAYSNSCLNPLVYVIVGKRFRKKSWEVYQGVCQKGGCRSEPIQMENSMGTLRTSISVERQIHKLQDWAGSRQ

[6] = molecular target: T4, C-X-C chemokine receptor type 1 (Homo sapiens, UniProt P25024); note: in other assays of this panel Not Active means under 50% inhibition at 10 µM
T4 sequence (P25024 whole entry): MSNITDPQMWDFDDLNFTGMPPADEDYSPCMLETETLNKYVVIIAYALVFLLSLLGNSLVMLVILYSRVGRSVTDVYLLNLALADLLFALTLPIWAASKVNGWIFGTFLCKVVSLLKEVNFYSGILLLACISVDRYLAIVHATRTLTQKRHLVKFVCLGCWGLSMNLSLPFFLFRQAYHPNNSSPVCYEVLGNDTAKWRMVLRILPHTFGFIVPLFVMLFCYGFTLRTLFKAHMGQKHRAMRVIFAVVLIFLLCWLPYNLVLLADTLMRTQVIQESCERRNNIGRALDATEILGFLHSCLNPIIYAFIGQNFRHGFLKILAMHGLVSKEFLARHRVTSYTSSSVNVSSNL

[7] = molecular target: Prostaglandin G/H synthase 1 (Homo sapiens, UniProt P23219); experiment: biochemical; format: tissue-based, Platelet; details: platelet
Prostaglandin G/H synthase 1, sequence (P23219 whole entry): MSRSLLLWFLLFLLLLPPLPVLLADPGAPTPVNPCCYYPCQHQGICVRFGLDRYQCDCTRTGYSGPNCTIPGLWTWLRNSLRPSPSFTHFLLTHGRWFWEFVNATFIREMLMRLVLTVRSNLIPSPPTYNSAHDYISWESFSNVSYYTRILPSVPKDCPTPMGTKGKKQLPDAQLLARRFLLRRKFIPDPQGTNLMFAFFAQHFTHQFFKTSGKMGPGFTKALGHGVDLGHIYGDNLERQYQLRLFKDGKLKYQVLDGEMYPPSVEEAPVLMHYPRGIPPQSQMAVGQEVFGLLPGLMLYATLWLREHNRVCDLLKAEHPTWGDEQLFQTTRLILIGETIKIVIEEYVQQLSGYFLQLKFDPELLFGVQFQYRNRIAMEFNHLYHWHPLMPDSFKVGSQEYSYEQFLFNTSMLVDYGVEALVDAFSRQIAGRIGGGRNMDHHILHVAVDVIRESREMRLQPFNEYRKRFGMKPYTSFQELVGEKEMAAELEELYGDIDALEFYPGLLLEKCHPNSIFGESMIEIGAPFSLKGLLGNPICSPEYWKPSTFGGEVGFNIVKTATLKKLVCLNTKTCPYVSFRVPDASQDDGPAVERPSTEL

[8] = molecular target: T5, Alpha-1D adrenergic receptor (Homo sapiens, UniProt P25100); format: cell membranes, HEK293, Membrane; details: hek293; note: in other assays of this panel Not Active means under 50% inhibition at 10 µM
T5 sequence (P25100 whole entry): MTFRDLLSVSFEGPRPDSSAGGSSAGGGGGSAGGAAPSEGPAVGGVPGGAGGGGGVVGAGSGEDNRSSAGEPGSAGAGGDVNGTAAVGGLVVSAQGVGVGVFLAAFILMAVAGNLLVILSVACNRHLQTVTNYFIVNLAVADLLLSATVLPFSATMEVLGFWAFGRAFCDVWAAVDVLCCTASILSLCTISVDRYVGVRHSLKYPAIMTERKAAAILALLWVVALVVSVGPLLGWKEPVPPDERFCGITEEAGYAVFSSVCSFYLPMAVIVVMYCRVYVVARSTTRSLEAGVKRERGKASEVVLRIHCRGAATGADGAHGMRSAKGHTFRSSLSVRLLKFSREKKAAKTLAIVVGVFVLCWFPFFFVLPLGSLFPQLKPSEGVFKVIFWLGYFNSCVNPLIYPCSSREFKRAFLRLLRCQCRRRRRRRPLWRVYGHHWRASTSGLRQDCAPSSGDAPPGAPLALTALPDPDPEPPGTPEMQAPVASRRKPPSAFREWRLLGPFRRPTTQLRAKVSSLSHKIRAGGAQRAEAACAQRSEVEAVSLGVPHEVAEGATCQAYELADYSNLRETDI

CO[C@H]1C[C@@H]2CC[C@@H](C)[C@@](O)(O2)C(=O)C(=O)N2CCCC[C@H]2C(=O)O[C@H]([C@H](C)C[C@@H]2CC[C@@H](O)[C@H](OC)C2)CC(=O)[C@H](C)/C=C(\C)[C@@H](O)[C@@H](OC)C(=O)[C@H](C)C[C@H](C)/C=C/C=C/C=C/1C [SIROLIMUS]
Not Active: IC50 [1] | IC50 [2] | Ki [2] | IC50 [3] | IC50 [4] | IC50 [5] | IC50 [6] | IC50 [7] | IC50 [8]

CN[C@@H]1[C@H](O)[C@H](NC)[C@H]2O[C@@]3(O)C(=O)C[C@@H](C)O[C@H]3O[C@@H]2[C@H]1O [SPECTINOMYCIN]
Not Active: IC50 [1] | IC50 [2] | Ki [2] | IC50 [3] | IC50 [4] | IC50 [5] | IC50 [6] | IC50 [7] | IC50 [8]

Nc1ccc(S(=O)(=O)Nc2ncccn2)cc1 [SULFADIAZINE]
Not Active: IC50 [1] | IC50 [2] | Ki [2] | IC50 [3] | IC50 [4] | IC50 [5] | IC50 [6] | IC50 [7] | IC50 [8]

COc1ncnc(NS(=O)(=O)c2ccc(N)cc2)c1OC [SULFADOXINE]
Not Active: IC50 [1] | IC50 [2] | Ki [2] | IC50 [3] | IC50 [4] | IC50 [5] | IC50 [6] | IC50 [7] | IC50 [8]

Nc1ccc(S(=O)(=O)Nc2nccs2)cc1 [SULFATHIAZOLE]
Not Active: IC50 [1] | IC50 [2] | Ki [2] | IC50 [3] | IC50 [4] | IC50 [5] | IC50 [6] | IC50 [7] | IC50 [8]

C[C@]12CC[C@H]3[C@@H](CCC4=CC(=O)CC[C@@]43C)[C@@H]1CC[C@@H]2O [TESTOSTERONE]
Not Active: IC50 [1] | IC50 [2] | Ki [2] | IC50 [3] | IC50 [4] | IC50 [5] | IC50 [6] | IC50 [7] | IC50 [8]

CC(C)(C)NC[C@H](O)COc1nsnc1N1CCOCC1 [TIMOLOL]
Not Active: IC50 [1] | IC50 [2] | Ki [2] | IC50 [3] | IC50 [4] | IC50 [5] | IC50 [6] | IC50 [7] | IC50 [8]

CCS(=O)(=O)CCn1c([N+](=O)[O-])cnc1C [TINIDAZOLE]
Not Active: IC50 [1] | IC50 [2] | Ki [2] | IC50 [3] | IC50 [4] | IC50 [5] | IC50 [6] | IC50 [7] | IC50 [8]

C[C@@H]1C[C@H]2[C@@H]3CCC4=CC(=O)C=C[C@]4(C)C3=CC[C@]2(C)[C@H]1C(=O)CN1CCN(c2cc(N3CCCC3)nc(N3CCCC3)n2)CC1 [TIRILAZAD]
Not Active: IC50 [1] | IC50 [2] | Ki [2] | IC50 [3] | IC50 [4] | IC50 [5] | IC50 [6] | IC50 [7] | IC50 [8]

NC[C@H]1O[C@H](O[C@H]2[C@H](O)[C@@H](O[C@H]3O[C@H](CO)[C@@H](O)[C@H](N)[C@H]3O)[C@H](N)C[C@@H]2N)[C@H](N)C[C@@H]1O [TOBRAMYCIN]
Not Active: IC50 [1] | IC50 [2] | Ki [2] | IC50 [3] | IC50 [4] | IC50 [5] | IC50 [6] | IC50 [7] | IC50 [8]

O=C(O)C(Cl)(Cl)Cl [TRICHLOROACETIC ACID]
Not Active: IC50 [1] | IC50 [2] | Ki [2] | IC50 [3] | IC50 [4] | IC50 [5] | IC50 [6] | IC50 [7] | IC50 [8]

COc1ccc(CN2CCNCC2)c(OC)c1OC [TRIMETAZIDINE]
Not Active: IC50 [1] | IC50 [2] | Ki [2] | IC50 [3] | IC50 [4] | IC50 [5] | IC50 [6] | IC50 [7] | IC50 [8]

CC(=O)O[C@H]1C[C@@H]2CC[C@@H]3[C@H](CC[C@@]4(C)[C@H]3C[C@H]([N+]3(C)CCCCC3)[C@@H]4OC(C)=O)[C@@]2(C)C[C@@H]1N1CCCCC1.[Br-] [VECURONIUM BROMIDE]
Not Active: IC50 [1] | IC50 [2] | Ki [2] | IC50 [3] | IC50 [4] | IC50 [5] | IC50 [6] | IC50 [7] | IC50 [8]

COc1cc(C(=O)NS(=O)(=O)c2ccccc2C)ccc1Cc1cn(C)c2ccc(NC(=O)OC3CCCC3)cc12 [ZAFIRLUKAST]
Not Active: IC50 [1] | IC50 [2] | Ki [2] | IC50 [3] | IC50 [4] | IC50 [5] | IC50 [6] | IC50 [7] | IC50 [8]

Cc1cn([C@H]2C[C@H](N=[N+]=[N-])[C@@H](CO)O2)c(=O)[nH]c1=O [ZIDOVUDINE]
Not Active: IC50 [1] | IC50 [2] | Ki [2] | IC50 [3] | IC50 [4] | IC50 [5] | IC50 [6] | IC50 [7] | IC50 [8]

STANNOUS FLUORIDE
Not Active: IC50 [1] | Ki [1] | IC50 [2] | Ki [2] | IC50 [3] | Ki [3] | IC50 [4] | Ki [4] | IC50 [5] | Ki [5] | IC50 [6] | Ki [6] | IC50 [7] | Ki [7] | IC50 [8] | Ki [8]

THIMEROSAL
Not Active: IC50 [1] | Ki [1] | IC50 [2] | Ki [2] | IC50 [3] | Ki [3] | IC50 [4] | Ki [4] | IC50 [5] | Ki [5] | IC50 [6] | Ki [6] | IC50 [7] | Ki [7] | IC50 [8] | Ki [8]
